Assay results taken from US20050282755A1, “Compositions having antimicrobial activity and uses thereof” (priority 2004, published 2005).
In brackets after ≈: the same amount, converted by molar mass. Starred links: 1 amine or outer side, 2 acyl side, 3 side chain; linkers in the order of their positions; H or OH if unused. Non-standard residues stand in square brackets, D forms with d. Residues, ends and D or L forms follow the SMILES beside them. *: point of attachment. Ethylenediamine = C(CN[*:2])N[*:1]; Lauroyl = CCCCCCCCCCCC(=O)*; Decanoyl = CCCCCCCCCC(=O)*; Octanoyl = CCCCCCCC(=O)*

Legend:
Type in all cases: cell-based
[1] = tested on: Staphylococcus aureus ATCC 29213; experiment: MIC, NCCLS M7-A6 broth microdilution, cation-adjusted Mueller Hinton broth (Table 9, no superscript); settings: ATCC 29213
In short: (§1)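 Log-phase bacteria were added to wells containing peptide in cation-adjusted Mueller Hinton broth at a final 5×10^5 to 1×10^6 CFU/milliliter. Plates then sat overnight at 37° C. Wells were scored visually for turbidity against a peptide-free control.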

[2] = tested on: Escherichia coli ATCC 25922; experiment: MIC, NCCLS M7-A6 broth microdilution (Table 9, no superscript); settings: ATCC 25922
In short: as §1

[3] = tested on: Pseudomonas aeruginosa ATCC 27853; experiment: as above; settings: ATCC 27853
In short: as §1

Salmonella dublin (Lane) = experiment: as above
In short: as §1

[4] = tested on: Staphylococcus epidermidis ATCC 12228; experiment: as above; settings: ATCC 12228
In short: as §1

[5] = tested on: Propionibacterium acnes ATCC 6919; experiment: MIC, agar dilution method NCCLS M11-A6, Brucella agar, anaerobic (Table 9, superscript c); settings: ATCC 6919
Method: A bacterial suspension was prepared to allow for a final inoculum on the plate of 1.5×10^8 CFU/milliliter. After the suspension absorbed into the agar surface, the plates were incubated for 48-96 hours at 37° C. in a GasPak anaerobic chamber. The lowest concentration of peptide that contained no colony growth on the agar plate was determined as the MIC. MIC values that utilized this method of MIC determination are indicated in Table 9 with a superscript letter “c.”

Row | Compound | MIC S. aureus [1] | MIC E. coli [2] | MIC P. aeruginosa [3] | MIC S. dublin (Salmonella dublin (Lane)) | MIC S. epidermidis [4] | MIC P. acnes [5]
1 | CCCCCCCC(=O)NCCNC(=O)[C@H](CCCNC(=N)N)NC(=O)[C@H](CC(C)C)NC(=O)[C@H](Cc1ccccc1)NC(=O)[C@H](CC(N)=O)NC(=O)[C@H](CCCNC(=N)N)NC(=O)[C@H](C)NC(=O)[C@@H](NC(=O)[C@H](CC(=O)O)NC(=O)[C@H](CCCNC(=N)N)NC(=O)[C@H](Cc1c[nH]c2ccccc12)NC(=O)[C@H](CCCNC(=N)N)NC(=O)[C@H](CO)NC(=O)[C@@H](N)CCCNC(=N)N)C(C)C [Peptide 169, H2N-RSRWRDVARNFLR-Ethylamidooctanyl] (H-RSRWRDVARNFLR-{Ethylenediamine-Octanoyl}; C-terminus assumed) | 4 µg/mL (≈ 2.1 µM) | 2 µg/mL (≈ 1.05 µM) | 4 µg/mL (≈ 2.1 µM) | 8 µg/mL (≈ 4.21 µM) | 1 µg/mL (≈ 0.526 µM) | 64c ug/mL
2 | CCCCCCCCCC(=O)N[C@@H](CCCNC(=N)N)C(=O)N[C@@H](CO)C(=O)N[C@@H](CCCNC(=N)N)C(=O)N[C@@H](Cc1c[nH]c2ccccc12)C(=O)N[C@@H](CCCNC(=N)N)C(=O)N[C@@H](CC(=O)O)C(=O)N[C@H](C(=O)N[C@@H](C)C(=O)N[C@@H](CCCNC(=N)N)C(=O)N[C@@H](CC(N)=O)C(=O)N[C@@H](Cc1ccccc1)C(=O)N[C@@H](CCSC)C(=O)N[C@@H](CCCNC(=N)N)C(N)=O)C(C)C [Peptide 204, Decanyl-RSRWRDVARNFMR-NH2] (Decanoyl-RSRWRDVARNFMR-NH2) | 8 µg/mL (≈ 4.2 µM) | 8 µg/mL (≈ 4.2 µM) | 32 µg/mL (≈ 16.8 µM) | 32 µg/mL (≈ 16.8 µM) | 2 µg/mL (≈ 1.05 µM) | >64c ug/mL
3 | CCCCCCCC(=O)N[C@H](CCCNC(=N)N)C(=O)N[C@H](CO)C(=O)N[C@H](CCCNC(=N)N)C(=O)N[C@H](Cc1c[nH]c2ccccc12)C(=O)N[C@H](CCCNC(=N)N)C(=O)N[C@H](CC(=O)O)C(=O)N[C@@H](C(=O)N[C@H](C)C(=O)N[C@H](CCCNC(=N)N)C(=O)N[C@H](CC(N)=O)C(=O)N[C@H](Cc1ccccc1)C(=O)N[C@H](CCSC)C(=O)N[C@H](CCCNC(=N)N)C(N)=O)C(C)C [Peptide 207, Octyl-rsrwrdvarnfmr-NH2] (Octanoyl-[dR][dS][dR][dW][dR][dD][dV][dA][dR][dN][dF][dM][dR]-NH2) | 16 µg/mL (≈ 8.53 µM) | 32 µg/mL (≈ 17.1 µM) | 32 µg/mL (≈ 17.1 µM) | 64 µg/mL (≈ 34.1 µM) | 4 µg/mL (≈ 2.13 µM) | 16c ug/mL
4 | CCCCCCCCCC(=O)N[C@H](CCCNC(=N)N)C(=O)N[C@H](CO)C(=O)N[C@H](CCCNC(=N)N)C(=O)N[C@H](Cc1c[nH]c2ccccc12)C(=O)N[C@H](CCCNC(=N)N)C(=O)N[C@H](CC(=O)O)C(=O)N[C@@H](C(=O)N[C@H](C)C(=O)N[C@H](CCCNC(=N)N)C(=O)N[C@H](CC(N)=O)C(=O)N[C@H](Cc1ccccc1)C(=O)N[C@H](CCSC)C(=O)N[C@H](CCCNC(=N)N)C(N)=O)C(C)C [Peptide 208, Decanyl-rsrwrdvarnfmr-NH2] (Decanoyl-[dR][dS][dR][dW][dR][dD][dV][dA][dR][dN][dF][dM][dR]-NH2) | 4 µg/mL (≈ 2.1 µM) | >64 µg/mL | >64 µg/mL | 8 µg/mL (≈ 4.2 µM) | >64 µg/mL | 2c ug/mL
5 | CCCCCCCCCCCC(=O)N[C@H](CCCNC(=N)N)C(=O)N[C@H](CO)C(=O)N[C@H](CCCNC(=N)N)C(=O)N[C@H](Cc1c[nH]c2ccccc12)C(=O)N[C@H](CCCNC(=N)N)C(=O)N[C@H](CC(=O)O)C(=O)N[C@@H](C(=O)N[C@H](C)C(=O)N[C@H](CCCNC(=N)N)C(=O)N[C@H](CC(N)=O)C(=O)N[C@H](Cc1ccccc1)C(=O)N[C@H](CC(C)C)C(=O)N[C@H](CCCNC(=N)N)C(N)=O)C(C)C [Peptide 210, Lauryl-rsrwrdvarnflr-NH2] (Lauroyl-[dR][dS][dR][dW][dR][dD][dV][dA][dR][dN][dF][dL][dR]-NH2) | 4 µg/mL (≈ 2.09 µM) | 8 µg/mL (≈ 4.18 µM) | 16 µg/mL (≈ 8.36 µM) | 4 µg/mL (≈ 2.09 µM) | 2 µg/mL (≈ 1.05 µM) | 8c ug/mL
6 | CCCCCCCCCCCC(=O)N[C@H](CCCNC(=N)N)C(=O)N[C@H](CO)C(=O)N[C@H](CCCNC(=N)N)C(=O)N[C@H](Cc1c[nH]c2ccccc12)C(=O)N[C@H](CCCNC(=N)N)C(=O)N[C@H](CC(=O)O)C(=O)N[C@@H](C(=O)N[C@H](C)C(=O)N[C@H](CCCNC(=N)N)C(=O)N[C@H](CC(N)=O)C(=O)N[C@H](Cc1ccccc1)C(=O)N[C@H](CC(C)C)C(N)=O)C(C)C [Peptide 211, Lauryl-rsrwrdvarnfl-NH2] (Lauroyl-[dR][dS][dR][dW][dR][dD][dV][dA][dR][dN][dF][dL]-NH2) | 4 µg/mL (≈ 2.28 µM) | 8 µg/mL (≈ 4.55 µM) | 64 µg/mL (≈ 36.4 µM) | 4 µg/mL (≈ 2.28 µM) | 2 µg/mL (≈ 1.14 µM) | 4c ug/mL

The remaining lines, values ahead:

Row | MIC S. aureus [1] | MIC E. coli [2] | MIC P. aeruginosa [3] | MIC S. dublin (Salmonella dublin (Lane)) | MIC S. epidermidis [4] | MIC P. acnes [5] | Compound
7 | 4 µg/mL (≈ 2.28 µM) | 8 µg/mL (≈ 4.55 µM) | 64 µg/mL (≈ 36.4 µM) | 4 µg/mL (≈ 2.28 µM) | 2 µg/mL (≈ 1.14 µM) | 2c ug/mL | CCCCCCCCCCCC(=O)N[C@H](CO)C(=O)N[C@H](CCCNC(=N)N)C(=O)N[C@H](Cc1c[nH]c2ccccc12)C(=O)N[C@H](CCCNC(=N)N)C(=O)N[C@H](CC(=O)O)C(=O)N[C@@H](C(=O)N[C@H](C)C(=O)N[C@H](CCCNC(=N)N)C(=O)N[C@H](CC(N)=O)C(=O)N[C@H](Cc1ccccc1)C(=O)N[C@H](CC(C)C)C(=O)N[C@H](CCCNC(=N)N)C(N)=O)C(C)C [Peptide 212, Lauryl-srwrdvarnflr-NH2] (Lauroyl-[dS][dR][dW][dR][dD][dV][dA][dR][dN][dF][dL][dR]-NH2)
8 | 4 µg/mL (≈ 2.05 µM) | 8 µg/mL (≈ 4.09 µM) | 4 µg/mL (≈ 2.05 µM) | 4 µg/mL (≈ 2.05 µM) | 2 µg/mL (≈ 1.02 µM) | 16c ug/mL | CCCCCCCCCCCC(=O)N[C@H](CCCNC(=N)N)C(=O)N[C@H](CCCCN)C(=O)N[C@H](CCCNC(=N)N)C(=O)N[C@H](Cc1c[nH]c2ccccc12)C(=O)N[C@H](CCCNC(=N)N)C(=O)N[C@H](CC(=O)O)C(=O)N[C@@H](C(=O)N[C@H](C)C(=O)N[C@H](CCCNC(=N)N)C(=O)N[C@H](CC(N)=O)C(=O)N[C@H](Cc1ccccc1)C(=O)N[C@H](CC(C)C)C(=O)N[C@H](CCCNC(=N)N)C(N)=O)C(C)C [Peptide 219, Lauryl-rkrwrdvarnflr-NH2] (Lauroyl-[dR][dK][dR][dW][dR][dD][dV][dA][dR][dN][dF][dL][dR]-NH2)
9 | 2 µg/mL (≈ 1.02 µM) | 4 µg/mL (≈ 2.03 µM) | 8 µg/mL (≈ 4.06 µM) | 2 µg/mL (≈ 1.02 µM) | 1 µg/mL (≈ 0.508 µM) | 16c ug/mL | CCCCCCCCCCCC(=O)N[C@H](CCCNC(=N)N)C(=O)N[C@H](CCCCN)C(=O)N[C@H](CCCNC(=N)N)C(=O)N[C@H](Cc1c[nH]c2ccccc12)C(=O)N[C@H](CCCNC(=N)N)C(=O)N[C@H](CCC(=O)O)C(=O)N[C@@H](C(=O)N[C@H](C)C(=O)N[C@H](CCCNC(=N)N)C(=O)N[C@H](CC(N)=O)C(=O)N[C@H](Cc1ccccc1)C(=O)N[C@H](CC(C)C)C(=O)N[C@H](CCCNC(=N)N)C(N)=O)C(C)C [Peptide 220, Lauryl-rkrwrevarnflr-NH2] (Lauroyl-[dR][dK][dR][dW][dR][dE][dV][dA][dR][dN][dF][dL][dR]-NH2)
10 | 2 µg/mL (≈ 1.05 µM) | 8 µg/mL (≈ 4.22 µM) | 16 µg/mL (≈ 8.43 µM) | 4 µg/mL (≈ 2.11 µM) | 2 µg/mL (≈ 1.05 µM) | 32c ug/mL | CCCCCCCCCCCC(=O)N[C@H](CCCNC(=N)N)C(=O)N[C@H](C)C(=O)N[C@H](CCCNC(=N)N)C(=O)N[C@H](Cc1c[nH]c2ccccc12)C(=O)N[C@H](CCCNC(=N)N)C(=O)N[C@H](CC(=O)O)C(=O)N[C@@H](C(=O)N[C@H](C)C(=O)N[C@H](CCCNC(=N)N)C(=O)N[C@H](CC(N)=O)C(=O)N[C@H](Cc1ccccc1)C(=O)N[C@H](CC(C)C)C(=O)N[C@H](CCCNC(=N)N)C(N)=O)C(C)C [Peptide 224, Lauryl-rarwrdvarnflr-NH2] (Lauroyl-[dR][dA][dR][dW][dR][dD][dV][dA][dR][dN][dF][dL][dR]-NH2)
11 | 1 µg/mL (≈ 0.535 µM) | 16 µg/mL (≈ 8.56 µM) | 16 µg/mL (≈ 8.56 µM) | 1 µg/mL (≈ 0.535 µM) | 2 µg/mL (≈ 1.07 µM) | 8c ug/mL | CCCCCCCCCCCC(=O)N[C@H](CCCNC(=N)N)C(=O)N[C@H](CO)C(=O)N[C@H](CCCNC(=N)N)C(=O)N[C@H](Cc1c[nH]c2ccccc12)C(=O)N[C@H](CCCNC(=N)N)C(=O)N[C@H](C)C(=O)N[C@@H](C(=O)N[C@H](C)C(=O)N[C@H](CCCNC(=N)N)C(=O)N[C@H](CC(N)=O)C(=O)N[C@H](Cc1ccccc1)C(=O)N[C@H](CC(C)C)C(=O)N[C@H](CCCNC(=N)N)C(N)=O)C(C)C [Peptide 225, Lauryl-rsrwravarnflr-NH2] (Lauroyl-[dR][dS][dR][dW][dR][dA][dV][dA][dR][dN][dF][dL][dR]-NH2)
